# Source: patent US20220110910A1, “CANNABINOID-CONTAINING COMPLEX MIXTURES FOR THE TREATMENT OF CYTOKINE RELEASE SYNDROME WHILE PRESERVING KEY ANTI-VIRAL IMMUNE REACTIONS” (GBS Global BioPharma, Inc., priority 2020, published 2022)
# Entries after “also recorded” stand apart in the source; their conditions may differ.
# What was measured:
# Type in all cases: cell-based, human
# [1] = tested on: plasmacytoid dendritic cells (pDC); assay: IFNα and TNFα in pDC of PBMC stimulated with CpG-ODN (intracellular staining); conditions: CpG-ODN, vs vehicle; for IFNα production by pDC: 0.01, 0.1, and 1.0 μM
# Method: (§1) In immunological activity experiments, PBMC suspensions were pre-treated with cannabinoid and/or terpene compounds for 30 minutes before treatment with designated stimuli, cultured in 96 well tissue culture plates, and incubated at 37° C. and 5.0% CO2. In pDC experiments, cell suspensions were stimulated with CpG-ODN Type A 2216 (15 μg/mL) (InvivoGen©, San Diego, Calif.) following treatment with cannabinoids. Golgi transport inhibitors Monensin (2 μM)/Brefeldin A (3.0 μg/mL) (Thermo Fisher Scientific, Waltham, Mass.) were added to culture 3 hours post-stimulation, and after 7 hours of stimulation cells were harvested for evaluation by flow cytometry for IFNα and TNFα. In monocyte experiments, cell suspensions were stimulated with 1000 ng/mL LPS (S. typhosa, Sigma Aldrich, St. Louis, Mo.) for 18 hours before harvesting supernatants for IL-1β, Golgi blocked for 6 hours before harvesting cells for assessment of IL-6, or cultured for 48 hours before harvesting cells for assessment of HLA-DR, CD80, and CD86. In phagocytosis experiments, cell suspensions were treated with 3.0 mg/mL of pHrodo Green BioParticles (Thermo Fisher). In T cell experiments, cells were plated on 96 well tissue culture plates pre-coated with 5.0 μg/mL anti-CD3 (clone UCHT1, Biolegend, San Diego, Calif.) and stimulated with 5.0 μg/mL anti-CD28 (clone 28.2, Biolegend) and supplemented with 5.0 ng/mL IL-2 (Roche Applied Science, Indianapolis, Ind.). CD25 and CD69 were assessed by flow cytometry 24 hours post-stimulation. In proliferation experiments, cell suspensions were incubated with CFSE Cell Division Tracker (Biolegend) according to manufacturer protocols, harvested 4 days post-stimulation and assessed by flow cytometry. Cell suspensions were further stimulated with 50 ng/mL phorbol 12-myristate 13-acetate (PMA) and 1000 ng/mL ionomycin (Io) at 4 days post-stimulation for 18 hours, Golgi blocked for 6 hours, and harvested for IL-4 and IFNγ assessment by flow cytometry.
# (§2) In brief, pDC, monocyte and T cell were identified using antibodies directed against unique epitopes for each cell type and analyzed by flow cytometry. Cells were fixed in BD CytoFix and resuspended in FACS buffer for extracellular staining. To determine the changes in cell viability in mixed PBMC, gates were first set on singlet events, then CD45+ cells, then populations identified by CD3+ (T cells) and CD14+ (monocytes), and then 7-AAD- for viability. Likewise, for pDC viability experiments, pDC were identified as CD303+ and viable by exclusion of Near IR L/D stain (Life Technologies, Carlsbad, Calif.). For intracellular staining, fixed cells were permeabilized in BD Permwash and incubated with appropriate antibodies and 7% human AB serum. pDC were identified as CD303+and assessed for intracellular IFNα and TNFα. Monocytes were identified as CD14+ and assessed for extracellular HLA-DR, CD80, CD86, and intracellular TNFα and IL-6. In phagocytosis experiments, PBMC were identified as CD45+ and monocytes were identified based on side scatter and then phagocytosing monocytes. T cells were identified as CD3+ and T cell subsets identified by CD4+ and CD8+ and assessed for extracellular CD25 and CD69 and intracellular IFNγ and IL-4. To analyze T cell proliferation, FlowJo 10.0 proliferation tool was used by setting the undivided peak of CFSE stained cells in each sample.
# monocytes [2] = assay: Phagocytosis of pHrodo Green BioParticles by monocytes; conditions: 10 μM; pHrodo Green BioParticles 3.0 mg/mL; vs vehicle
# Method: as §1, with “In T cell experiments, cells were plated on 96 well tissue culture plates pre-coated with 5.0 μg/mL anti-CD3 (clone UCHT1, Biolegend, San Diego, Calif.) and stimulated with 5.0 μg/mL anti-CD28 (clone 28.2, Biolegend) and supplemented with 5.0 ng/mL IL-2 (Roche Applied Science, Indianapolis, Ind.).” left out, “Cell suspensions were further stimulated with 50 ng/mL phorbol 12-myristate 13-acetate (PMA) and 1000 ng/mL ionomycin (Io) at 4 days post-stimulation for 18 hours, Golgi blocked for 6 hours, and harvested for IL-4 and IFNγ assessment by flow cytometry.” left out
# (§3) In brief, pDC, monocyte and T cell were identified using antibodies directed against unique epitopes for each cell type and analyzed by flow cytometry. […] For intracellular staining, fixed cells were permeabilized in BD Permwash and incubated with appropriate antibodies and 7% human AB serum. pDC were identified as CD303+and assessed for intracellular IFNα and TNFα. Monocytes were identified as CD14+ and assessed for extracellular HLA-DR, CD80, CD86, and intracellular TNFα and IL-6. […] T cells were identified as CD3+ and T cell subsets identified by CD4+ and CD8+ and assessed for extracellular CD25 and CD69 and intracellular IFNγ and IL-4. […]
# CD8+ T cells [3] = assay: Intracellular IFNγ after anti-CD3/anti-CD28 stimulation and PMA/ionomycin; conditions: vs vehicle
# Method: as §1
# as §3, with “cytometry. Cells were fixed in BD CytoFix and resuspended in FACS buffer for extracellular staining.” for “cytometry.”
# CD4+ T cells = assay: Intracellular IFNγ and IL-4 after anti-CD3/anti-CD28 stimulation and PMA/ionomycin; conditions: vs vehicle
# Method: as §1
# as §3, with “cytometry. Cells were fixed in BD CytoFix and resuspended in FACS buffer for extracellular staining.” for “cytometry.”
# monocytes [4] = assay: TNFα+ monocytes after CpG-ODN stimulation (intracellular staining); conditions: 10 μM; CpG-ODN 15 μg/mL, 6 hours; vs vehicle
# Method: FIGS. 9A-9B reveal the TNFα decreasing potential of cannabinol (CBN). […] PBMC were isolated from human peripheral blood and pre-treated with the indicated concentrations of cannabinol for 30 minutes, followed by stimulation with 15 μg/mL CpG-ODN for 6 hours (FIG. 9A). Cells were non-enzymatically released from culture plates and assessed for the percentage of TNFα+ monocytes (FIG. 9A) by intracellular staining. For FIG. 9B, PBMC were isolated from human peripheral blood and pre-treated with the indicated concentrations of cannabinol for 30 minutes, followed by treatment with 3.0 mg/mL of pHrodo Green BioParticles (FIG. 9B). In FIG. 9B, cells were treated with 3.0 mg/mL of pHrodo Green BioParticles and assessed for phagocytosis monocytes by flow cytometry within 2 hours. Data are normalized to each donor's vehicle control when appropriate and presented as mean±SEM. N=4-6 donors per treatment group. […] *p<0.05 when compared to VH (FIG. 9A), or **p<0.01 when compared to VH (FIG. 9B), by repeated measure one-way ANOVA with Dunnett's posttest.
# as §3, with “cytometry. Cells were fixed in BD CytoFix and resuspended in FACS buffer for extracellular staining.” for “cytometry.”
# monocytes [5] = assay: Co-stimulatory markers HLA-DR, CD80, CD86 on monocytes after LPS; conditions: 2 days, vs vehicle
# Method: as §1, §2
# monocytes [6] = assay: IL-1β ELISA in supernatants of LPS-stimulated PBMC
# Method: as §1
# To quantify IL-1β produced by monocytes, supernatants were collected from LPS stimulated cell suspensions after 18 hours and frozen at −80° C. ELISA MAX from Biolegend was used as per manufacturer protocol to quantify IL-1β to a sensitivity of […].
# monocytes [7] = assay: IL-6+ monocytes after LPS stimulation (intracellular staining); conditions: 1-10 μM; LPS 1000 ng/mL; vs vehicle
# Method: as §1, with “In T cell experiments, cells were plated on 96 well tissue culture plates pre-coated with 5.0 μg/mL anti-CD3 (clone UCHT1, Biolegend, San Diego, Calif.) and stimulated with 5.0 μg/mL anti-CD28 (clone 28.2, Biolegend) and supplemented with 5.0 ng/mL IL-2 (Roche Applied Science, Indianapolis, Ind.).” left out, “Cell suspensions were further stimulated with 50 ng/mL phorbol 12-myristate 13-acetate (PMA) and 1000 ng/mL ionomycin (Io) at 4 days post-stimulation for 18 hours, Golgi blocked for 6 hours, and harvested for IL-4 and IFNγ assessment by flow cytometry.” left out
# as §3
# CD8+ T cells [8] = assay: T cell activation markers CD25 and CD69, 24 hours post-stimulation; conditions: 10 μM
# Method: as §1, with “In T cell experiments, cells were plated on 96 well tissue culture plates pre-coated with 5.0 μg/mL anti-CD3 (clone UCHT1, Biolegend, San Diego, Calif.) and stimulated with 5.0 μg/mL anti-CD28 (clone 28.2, Biolegend) and supplemented with 5.0 ng/mL IL-2 (Roche Applied Science, Indianapolis, Ind.).” left out, “Cell suspensions were further stimulated with 50 ng/mL phorbol 12-myristate 13-acetate (PMA) and 1000 ng/mL ionomycin (Io) at 4 days post-stimulation for 18 hours, Golgi blocked for 6 hours, and harvested for IL-4 and IFNγ assessment by flow cytometry.” left out
# as §3
# PBMC = assay: Immune modulation survey of single compounds (all functional responses); conditions: 0.001-10 μM
# Method: In immunological activity experiments, PBMC suspensions were pre-treated with cannabinoid and/or terpene compounds for 30 minutes before treatment with designated stimuli, cultured in 96 well tissue culture plates, and incubated at 37° C. and 5.0% CO2. In pDC experiments, cell suspensions were stimulated with CpG-ODN Type A 2216 (15 μg/mL) (InvivoGen©, San Diego, Calif.) following treatment with cannabinoids. Golgi transport inhibitors Monensin (2 μM)/Brefeldin A (3.0 μg/mL) (Thermo Fisher Scientific, Waltham, Mass.) were added to culture 3 hours post-stimulation, and after 7 hours of stimulation cells were harvested for evaluation by flow cytometry for IFNα and TNFα. […] CD25 and CD69 were assessed by flow cytometry 24 hours post-stimulation. In proliferation experiments, cell suspensions were incubated with CFSE Cell Division Tracker (Biolegend) according to manufacturer protocols, harvested 4 days post-stimulation and assessed by flow cytometry. […]
# In brief, pDC, monocyte and T cell were identified using antibodies directed against unique epitopes for each cell type and analyzed by flow cytometry. […] For intracellular staining, fixed cells were permeabilized in BD Permwash and incubated with appropriate antibodies and 7% human AB serum. pDC were identified as CD303+and assessed for intracellular IFNα and TNFα. […]
# [9] = 10 μM, LPS 1000 ng/mL, vs vehicle
compound,measurement,setting,value
"CC1=CCC2CC1C2(C)C (stereo not drawn) [α-Pinene, α-pinene]",IFNα production by pDC,[1],significantly suppressed
same,IFNα production by pDC,[1]; listed as Alpha-Pinene,significantly decreased
same,TNFα production by pDC,[1]; 0.1 and 1.0 μM,significantly suppressed
"CCCCCc1cc(O)c2c(c1)OC(C)(C)c1ccc(C)cc1-2 [CBN, cannabinol]",phagocytosis by monocytes,monocytes [2],decreasing; also recorded: significantly decreased
same,IFNγ in CD8+ T cells,CD8+ T cells [3]; 0.001-0.1 μM,significantly decreased
same,IFNγ in CD4+ T cells,CD4+ T cells; 0.001-0.1 μM,significantly decreased
same,TNFα in monocytes,monocytes [4],significantly decreased
"CCCCCc1cc(O)c(C/C=C(\C)CCC=C(C)C)c(O)c1 [CBG, cannabigerol]",IFNγ in CD8+ T cells,CD8+ T cells [3]; 0.01-1 μM,significantly decreased
same,IFNγ in CD4+ T cells,CD4+ T cells; 0.01-1 μM,significantly decreased
same,IL-4 levels in CD4+ T cells,CD4+ T cells; 0.1-1 μM,significantly decreased
same,HLA-DR co-stimulatory marker in monocytes,monocytes [5]; 10 μM,increased; also recorded: enhanced
same,CD86+ co-stimulatory marker in monocytes,monocytes [5]; 1-10 μM,increased; also recorded: enhanced
same,IL-1β in monocytes,monocytes [6]; [9],significantly decreased
"C=C(C)[C@@H]1CCC(C)=C[C@H]1c1c(O)cc(CCC)cc1O [CBDV, cannabidivarin]",IL-6 in monocytes,monocytes [7],significantly decreased
same,phagocytosis by monocytes,monocytes [2],significantly decreased
same,CD25+ activation marker in CD8+ T cells,CD8+ T cells [8],decreased
same,CD69+ activation marker in CD8+ T cells,CD8+ T cells [8],decreased
same,IFNγ in T cells (FIG. 8A: CD8+ T cells),CD8+ T cells [3]; 0.01 μM,significantly decreased
same,CD80+ co-stimulatory marker in monocytes,monocytes [5]; 10 μM,significantly decreased
same,CD86+ co-stimulatory marker in monocytes,monocytes [5]; 10 μM,increased
same,HLA-DR co-stimulatory marker in monocytes,monocytes [5]; 10 μM,significantly decreased
same,IL-1β in monocytes,"monocytes [6]; 0.01 μM, LPS 1000 ng/mL, vs vehicle",increased; also recorded: significantly increases
same,IL-1β in monocytes,monocytes [6]; [9],significantly decreased
C=CC(C)(O)CCC=C(C)C (centres unmarked) [Linalool],any other immunological functional responses measured in the immune modulation survey,PBMC,did not have any statistically significant effects
same,IL-1β secretion in monocytes,"monocytes [6]; 0.001 μM, LPS 1000 ng/mL, vs vehicle",significantly increased
same,IL-1β production,"monocytes [6]; any other concentration (tested 0.001-10 μM, other than 0.001 μM)",did not exhibit any effects
